Measured values published in US5962502A, “Polyamidic acid derivatives with antigastrin activity, a method for their preparation, and their pharmaceutical use” (priority 1993, dated 1999).

Columns and labels:
central CCK-B receptor = molecular target: T1, central CCK-B receptor (Cavia porcellus, UniProt H0VZC5); assay: Inhibition of the binding of [3-H][N-methyl-N-leucine]CCK-8 to guinea-pig cortical membranes; settings: for IC50: 150 minutes at 25° C.
T1 construct: Cerebral cortices of male white guinea-pigs were thus used; from tissue; host or cells: cerebral cortex membranes of male white guinea-pigs
T1 sequence (H0VZC5 1-426): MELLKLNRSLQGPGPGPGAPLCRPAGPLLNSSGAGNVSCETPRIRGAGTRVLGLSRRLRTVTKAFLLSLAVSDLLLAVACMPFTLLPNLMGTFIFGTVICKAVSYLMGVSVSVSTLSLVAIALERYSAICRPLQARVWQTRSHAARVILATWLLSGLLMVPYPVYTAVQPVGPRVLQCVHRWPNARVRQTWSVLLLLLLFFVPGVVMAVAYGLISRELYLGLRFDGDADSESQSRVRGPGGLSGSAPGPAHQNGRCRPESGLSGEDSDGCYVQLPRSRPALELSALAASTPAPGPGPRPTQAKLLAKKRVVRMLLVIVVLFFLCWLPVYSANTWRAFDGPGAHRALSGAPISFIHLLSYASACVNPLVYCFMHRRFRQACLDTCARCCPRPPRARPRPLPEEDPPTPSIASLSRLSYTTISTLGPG
Protocol: The ability of the compounds of the invention to interact with the central CCK-B receptor was evaluated with the use of non-sulphated [3-H] […] 225 (3) (1990), 1278-1286].
Cerebral cortices of male white guinea-pigs were thus used, according to the method mentioned above, so as to obtain a membrane content corresponding to about 300 mcg of proteins/ml. The membranes were incubated together with the radioactive tracer and the compounds under test for 150 minutes at 25° C. After the supernatant had been discarded, the radioactivity associated with the pellet was determined with a liquid scintillator. The specific binding was determined as the difference between the binding in the absence and in the presence of 5.10^-6 M CCK-8.

[1] = molecular target: T2, gastrin receptors or type-B cholecystokinin (CCK-B) receptors (Oryctolagus cuniculus, UniProt P46627); assay: Inhibition of the gastrin-induced increase of cytosolic calcium in rabbit gastric mucous-membrane cells (Fura 2); type: cell-based; settings: for Ratio IC50 Binding cortex / IC50 (gastric mucous cells): binding values taken from Table 3; for IC50, inhibition of the increase of cytosolic calcium: rabbit gastric mucous cells enriched in parietal cells, gastrin 5×10^-8
T2 construct: Rabbit gastric mucous-membrane cells were prepared by conventional techniques; endogenous in cells; host or cells: freshly isolated rabbit gastric mucosal cells, enriched by elutriation to about 70% parietal cells
T2 sequence (P46627 1-452): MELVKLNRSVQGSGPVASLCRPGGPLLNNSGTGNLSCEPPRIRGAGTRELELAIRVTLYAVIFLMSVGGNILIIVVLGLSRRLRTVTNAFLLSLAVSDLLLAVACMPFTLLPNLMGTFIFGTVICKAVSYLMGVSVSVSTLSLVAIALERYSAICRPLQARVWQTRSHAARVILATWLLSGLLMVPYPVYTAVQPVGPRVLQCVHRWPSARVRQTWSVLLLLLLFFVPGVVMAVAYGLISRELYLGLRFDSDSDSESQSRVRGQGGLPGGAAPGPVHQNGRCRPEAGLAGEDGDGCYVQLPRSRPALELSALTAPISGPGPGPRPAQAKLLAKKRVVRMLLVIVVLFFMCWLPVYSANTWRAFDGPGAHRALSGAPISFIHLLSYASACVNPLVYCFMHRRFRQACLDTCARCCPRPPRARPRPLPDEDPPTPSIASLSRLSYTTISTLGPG
Description: The parietal cells of the gastric mucous membrane are responsible for the secretion of HCl. They have specific membrane receptors which can be activated by gastrin and which have been defined as gastrin receptors or type-B cholecystokinin (CCK-B) receptors. Since it has been observed that the activation of the CCK-B receptors by gastrin leads to an increase in the cytosolic levels of calcium ions, a technique involving the measurement of the increase in intracellular calcium induced by gastrin in the presence and in the absence of the compounds of the invention was used as an index of the antigastrin activity of the compounds. Rabbit gastric mucous-membrane cells were prepared by conventional techniques with the use of collagenase and pronase as digestive enzymes. The cellular preparation obtained by the enzymatic digestion was composed of parietal cells, zymogen cells and mucous-membrane cells. […] The cells were then washed and resuspended in a saline solution buffered with HEPES containing, in mM: […] Each measurement was carried out on cells in suspension (0.8×10^6 /ml) at a thermostatically-controlled temperature of 37° C. and with constant magnetic stirring. The fluorescence was recorded with the use of a spectrofluorometer. The operative wavelengths were 340/380 nm for excitation and 505 nm for emission. […] Biol. Chem. 260 (1985), 3440]. […] The results thus obtained for some compounds of the invention are given in Table 4, which also gives an index derived from the ratio between the peripheral antigastrin activity just described and the displacement activity found in the test on binding to the guinea-pig cortex receptors described above.

mouse = assay: Black and White Box test in the mouse (anxiolytic activity); type: in vivo; settings: for LIGHT TIME TOTAL TIME / LIGHT-DARK MOVEMENTS / MOV. DARK % TOTAL MOV. / TOTAL MOVEMENTS: 5 minutes
Protocol: It has recently been postulated that the central CCK-B receptor has an important role in anxiety. This is in accordance with studies also carried out in man, which have shown that the central CCK-B mechanisms have an important function in the mediation of panic attacks [Bradwejn, H. et al; J. Psychopharmacology 6 (1992), 345]. […] This experimental model, which was carried out according to Costall et al [Pharm. Biochem. Behav. 32 (1989), 777-785], used a box with dimensions of 45×21×21(h) cm divided into 2 compartments which communicated with one another through a 13×5 cm hole. The smaller compartment (1/3 of the total area) had black walls, whereas the larger had transparent walls and was illuminated by a lamp which was placed 20 cm above the box and supplied light at 20W. Under the floor there was an activity meter which recorded the movements performed by the animal in the individual compartments. The experiment was started by placing the animal in the centre of the illuminated box; as well as movements, the time which the animal spent in the dark and in the light areas and the number of movements between the 2 compartments were then recorded for 5 minutes. A control animal generally preferred to stay in the dark compartment where it felt better protected from an unusual environmental situation which put it in a state of anxiety. In this experimental model, a compound having anxiolytic activity decreased the % of movements into the dark in comparison with the total movements, increased the movements between the two light-dark compartments, and increased the % of time spent in the light in comparison with the total time.
The results obtained are shown in Table 7, where the activities obtained with compounds 9, 21 and 51 are given, tested in comparison with diazepam.

SMILES | IC50 (central CCK-B receptor; guinea-pig cortical membranes) [nM] | Ratio IC50 Binding cortex / IC50 (gastric mucous cells) [1] | IC50, inhibition of the increase of cytosolic calcium [1] [nM] | also measured
CN(CC(=O)O)C(=O)CC[C@@H](NC(=O)c1cc(Cl)cc(Cl)c1)C(=O)N1CCC2(CCCC2)CC1 [Compound 2] | 610 | 0.7 | 1500 | –
CC(C)CC(NC(=O)CC[C@@H](NC(=O)c1cc(Cl)cc(Cl)c1)C(=O)N1CCC2(CCCC2)CC1)C(=O)O (some centres unmarked) [Compound 6] | 380 | 7.6 | 50 | –
O=C(CC[C@@H](NC(=O)c1cc(Cl)cc(Cl)c1)C(=O)N1CCC2(CCCC2)CC1)NC(Cc1ccccc1)C(=O)O (some centres unmarked) [Compound 8] | 200 | 3.3 | 60 | –
CN(C(=O)CC[C@@H](NC(=O)c1cc(Cl)cc(Cl)c1)C(=O)N1CCC2(CCCC2)CC1)C(Cc1ccccc1)C(=O)O (some centres unmarked) [Compound 11] | 220 | 3.1 | 70 | –
O=C(CC[C@@H](NC(=O)c1cc(Cl)cc(Cl)c1)C(=O)N1CCC2(CCCC2)CC1)NC(CCc1ccccc1)C(=O)O (some centres unmarked) [Compound 16] | 300 | 2.0 | 150 | –
O=C(CC[C@@H](NC(=O)c1cc(Cl)cc(Cl)c1)C(=O)N1CCC2(CCCC2)CC1)NC(Cc1ccc(O)cc1)C(=O)O (some centres unmarked) [Compound 18] | 320 | 1.6 | 200 | –
O=C(CC[C@@H](NC(=O)c1cc(Cl)cc(Cl)c1)C(=O)N1CCC2(CCCC2)CC1)NC(Cc1c[nH]c2ccccc12)C(=O)O (some centres unmarked) [Compound 19] | 50 | 5.0 | 10 | inhibition of the binding of [N-methyl-N-leucine]CCK-8, result in words (central CCK-B receptor; guinea-pig cortical membranes): potent inhibitors; IC50 order of magnitude, peripheral antigastrin activity ([1]; rabbit gastric mucous cells): nanomolar order of magnitude
CN(C(=O)CC[C@@H](NC(=O)c1cc(Cl)cc(Cl)c1)C(=O)N1CCC2(CCCC2)CC1)[C@@H](Cc1c[nH]c2ccccc12)C(=O)O [Compound 22] | 380 | 7.6 | 50 | –
O=C(CC[C@@H](NC(=O)c1cc(Cl)cc(Cl)c1)C(=O)N1CCC2(CCCC2)CC1)N[C@H](COCc1ccccc1)C(=O)O [Compound 23] | 270 | 4.5 | 60 | –
O=C(C[C@@H](NC(=O)c1cc(Cl)cc(Cl)c1)C(=O)N1CCC2(CCCC2)CC1)N[C@H](Cc1ccccc1)C(=O)O [Compound 44] | 350 | – | – | –
CC(Cc1ccccc1)(NC(=O)CC[C@@H](NC(=O)c1cc(Cl)cc(Cl)c1)C(=O)N1CCC2(CCCC2)CC1)C(=O)O (some centres unmarked) [Compound 45] | 580 | – | – | –
CN(C(=O)c1cc(Cl)cc(Cl)c1)[C@H](CCC(=O)N[C@H](Cc1c[nH]c2ccccc12)C(=O)O)C(=O)N1CCC2(CCCC2)CC1 [Compound 46] | 120 | – | – | –
CN(C(=O)CC[C@@H](NC(=O)c1cc(Cl)cc(Cl)c1)C(=O)N1CCC2(CCCC2)CC1)c1ccc(C(=O)O)cc1 [Compound 48] | 440 | – | – | –
O=C(CC[C@@H](NC(=O)c1cc(Cl)cc(Cl)c1)C(=O)N1CCC2(CCCC2)CC1)Nc1cccc(C(=O)O)c1 [Compound 49] | 1390 | – | – | –
O=C(CC[C@@H](NC(=O)c1ccccc1)C(=O)N1CCC2(CCCC2)CC1)Nc1ccc(C(=O)O)cc1 [Compound 54] | 9210 | – | – | –
O=C(C[C@@H](NC(=O)c1cc(Cl)cc(Cl)c1)C(=O)N1CCC2(CCCC2)CC1)Nc1ccccc1C(=O)O [Compound 55] | > 30000 | – | – | –
O=C(CC[C@@H](NC(=O)c1cc(Cl)cc(Cl)c1)C(=O)N1CCC2(CCCC2)CC1)NCc1ccc(C(=O)O)cc1 [Compound 56] | 19500 | – | – | –
O=C(O)Cc1ccc(NC(=O)CC[C@@H](NC(=O)c2cc(Cl)cc(Cl)c2)C(=O)N2CCC3(CCCC3)CC2)cc1 [Compound 57] | 7730 | – | – | –
O=C(CC[C@H](NC(=O)c1cc(Cl)cc(Cl)c1)C(=O)N1CCC2(CCCC2)CC1)N[C@H](Cc1ccccc1)C(=O)O [Compound S-9, reference compound] | 38600 | – | – | times less active than its R diastereoisomer, compound 9 (centre *) (central CCK-B receptor; binding, guinea-pig cortex): about 250 times; CCK-B-antagonistic activity in vitro, result in words (central CCK-B receptor; see Table 3): weak CCK-B-antagonistic activity; EFF. % VS CONTROL (LIGHT TIME TOTAL TIME) (mouse; 1.0 mg/kg IP): 3%; EFF. % VS CONTROL (LIGHT-DARK MOVEMENTS) (mouse; 1.0 mg/kg IP): 6%; EFF. % VS CONTROL (MOV. DARK % TOTAL MOV.) (mouse; 1.0 mg/kg IP): -5%; LIGHT TIME TOTAL TIME (mouse; 1.0 mg/kg IP): 28.5%; LIGHT-DARK MOVEMENTS (mouse; 1.0 mg/kg IP): 18.2; MOV. DARK % TOTAL MOV. (mouse; 1.0 mg/kg IP): 57%; TOTAL MOVEMENTS (mouse; 1.0 mg/kg IP): 528; EFF. % VS CONTROL (LIGHT TIME TOTAL TIME) (mouse; 10.0 mg/kg IP): 0%; EFF. % VS CONTROL (LIGHT-DARK MOVEMENTS) (mouse; 10.0 mg/kg IP): 0%; EFF. % VS CONTROL (MOV. DARK % TOTAL MOV.) (mouse; 10.0 mg/kg IP): +3%; LIGHT TIME TOTAL TIME (mouse; 10.0 mg/kg IP): 24.9%; LIGHT-DARK MOVEMENTS (mouse; 10.0 mg/kg IP): 14.4; MOV. DARK % TOTAL MOV. (mouse; 10.0 mg/kg IP): 62%; TOTAL MOVEMENTS (mouse; 10.0 mg/kg IP): 495; anxiolytic activity, result in words (mouse; Black and White Box test, IP): completely inactive
